A word on the MIC: it is the lowest concentration found to suppress growth. A higher MIC goes with weaker potency.

From PMC4858212, “Production of the Ramoplanin Activity Analogue by Double Gene Inactivation” (PLoS ONE, 2016) come the findings set out here.

In brackets after ≈: the same amount, converted by molar mass. Like-named read-outs stand apart in the source and are kept apart here. Numbered stars: 1 amine (or outer) side, 2 acyl side, 3 side chain; on linkers, the order of the positions; unused ones are H or OH. Bridge positions count the residues as written; N and C are the ends. Square brackets hold non-standard residues; d marks the D form. Peptide text beside a SMILES is read from it. * marks the point of attachment. Hpg(αMan(1-2)αMan) = N[C@H](C(=O)O)c1ccc(O[C@H]2O[C@H](CO)[C@@H](O)[C@H](O)[C@@H]2O[C@H]2O[C@H](CO)[C@@H](O)[C@H](O)[C@@H]2O)cc1; Octa(2Z,4E)dienoyl(7-Me) = CC(C)C/C=C/C=C\C(=O)*; X1 = NC(=O)[C@@H](O[*:3])[C@H](N[*:1])C(=O)[*:2]; Hpg(3-Cl) = N[C@H](C(=O)O)c1ccc(O)c(Cl)c1; d(aThr) = C[C@@H](O)[C@@H](N)C(=O)O; dHpg = N[C@@H](C(=O)O)c1ccc(O)cc1; Hpg = N[C@H](C(=O)O)c1ccc(O)cc1; aThr = C[C@H](O)[C@H](N)C(=O)O; dOrn = NCCC[C@@H](N)C(=O)O

Test [1] has as its system Enterococcus faecalis ATCC29212. As for the experimental part: (§1) The activies of ramoplanin and its analogs against MRSA and VRE were determined using a liquid microdilution method. MIC values were detected according to the CLSI guidelines. ATCC 25923 (methicillin-sensitive Staphylococcus aureus, MSSA), ATCC 43300 (methicillin-resistant Staphylococcus aureus, MRSA), ATCC 29212 (Enterococcus faecalis) and ATCC 51299 (vancomycin-resistant Enterococcus faecalis, VRE) were employed in this study. Ramoplanin and its analogs were dissolved in 30% methyl alcohol, which was also used as the negative control during the serial tests.
(§2) Antibacterial activities of purified deschlororamoplanin A2 aglycone were compared with ramoplanin A2 and ramoplanin A2 aglycone. The MICs of ramoplanin A2, ramoplanin A2 aglycone and deschlororamoplanin A2 aglycone against ATCC 25923 (methicillin-sensitive Staphylococcus aureus, MSSA), ATCC 43300 (methicillin-resistant Staphylococcus aureus, MRSA), ATCC 29212 (Enterococcus faecalis) and ATCC 51299 (vancomycin-resistant Enterococcus faecalis, VRE) were determined.

For test [2], the system named is Enterococcus faecalis ATCC51299. The method, then: as §1, §2
The subject of test [3] is Staphylococcus aureus ATCC25923. As for the experimental part: as §1, §2
Test [4] has as its system Staphylococcus aureus ATCC43300. The method, then: as §1, §2

Turning to `CC(C)C/C=C/C=C\C(=O)N[C@@H](CC(N)=O)C(=O)N[C@@H]1C(=O)N[C@H](c2ccc(O)cc2)C(=O)N[C@H](CCCN)C(=O)N[C@H]([C@@H](C)O)C(=O)N[C@@H](c2ccc(O)cc2)C(=O)N[C@H](c2ccc(O)cc2)C(=O)N[C@@H]([C@H](C)O)C(=O)N[C@@H](Cc2ccccc2)C(=O)N[C@H](CCCN)C(=O)N[C@@H](c2ccc(O[C@H]3O[C@H](CO)[C@@H](O)[C@H](O)[C@@H]3O[C@H]3O[C@H](CO)[C@@H](O)[C@H](O)[C@@H]3O)cc2)C(=O)N[C@H]([C@@H](C)O)C(=O)N[C@@H](c2ccc(O)cc2)C(=O)NCC(=O)N[C@@H](CC(C)C)C(=O)N[C@H](C)C(=O)N[C@@H](c2ccc(O)c(Cl)c2)C(=O)O[C@@H]1C(N)=O` [Ramoplanin A2] ({Octa(2Z,4E)dienoyl(7-Me)}-N[X1][dHpg][dOrn][d(aThr)][Hpg][dHpg][aThr]F[dOrn][Hpg(αMan(1-2)αMan)][d(aThr)][Hpg]GL[dA][Hpg(3-Cl)]; ester 2-C), the MIC turned out to be 1 µg/mL (≈ 0.392 µM) in test [1] (ATCC29212), 1 µg/mL (≈ 0.392 µM) in test [2] (ATCC51299), 2 µg/mL (≈ 0.783 µM) in test [3] (ATCC25923) and 4 µg/mL (≈ 1.57 µM) in test [4] (ATCC43300).
As for Enduracidin, the MIC stood at 8 µg/mL in test [1] (Enterococcus faecalis ATCC29212, liquid microdilution, CLSI guidelines, compounds dissolved in 30% methyl alcohol); 8 µg/mL in test [2] (Enterococcus faecalis ATCC51299 (vancomycin-resistant, VRE), liquid microdilution, CLSI guidelines, compounds dissolved in 30% methyl alcohol); 8 µg/mL in test [3] (Staphylococcus aureus ATCC25923 (methicillin-sensitive, MSSA), liquid microdilution, CLSI guidelines, compounds dissolved in 30% methyl alcohol); 8 µg/mL in test [4] (Staphylococcus aureus ATCC43300 (methicillin-resistant, MRSA), liquid microdilution, CLSI guidelines, compounds dissolved in 30% methyl alcohol).
Regarding `CC(C)C/C=C/C=C\C(=O)N[C@@H](CC(N)=O)C(=O)N[C@@H]1C(=O)N[C@H](c2ccc(O)cc2)C(=O)N[C@H](CCCN)C(=O)N[C@H]([C@@H](C)O)C(=O)N[C@@H](c2ccc(O)cc2)C(=O)N[C@H](c2ccc(O)cc2)C(=O)N[C@@H]([C@H](C)O)C(=O)N[C@@H](Cc2ccccc2)C(=O)N[C@H](CCCN)C(=O)N[C@@H](c2ccc(O[C@H]3O[C@H](CO)[C@@H](O)[C@H](O)[C@@H]3O[C@H]3O[C@H](CO)[C@@H](O)[C@H](O)[C@@H]3O)cc2)C(=O)N[C@H]([C@@H](C)O)C(=O)N[C@@H](c2ccc(O)cc2)C(=O)NCC(=O)N[C@@H](CC(C)C)C(=O)N[C@H](C)C(=O)N[C@@H](c2ccc(O)cc2)C(=O)O[C@@H]1C(N)=O` [Deschlororamoplanin A2] ({Octa(2Z,4E)dienoyl(7-Me)}-N[X1][dHpg][dOrn][d(aThr)][Hpg][dHpg][aThr]F[dOrn][Hpg(αMan(1-2)αMan)][d(aThr)][Hpg]GL[dA][Hpg]; ester 2-C), the minimal inhibitory concentration (MIC) in test [1] (ATCC29212) came to 1 µg/mL (≈ 0.397 µM); in test [2] (ATCC51299), 1 µg/mL (≈ 0.397 µM); in test [3] (ATCC25923) it was 2 µg/mL (≈ 0.794 µM); in test [4] (ATCC43300), 2 µg/mL (≈ 0.794 µM).
Consider `CC(C)C/C=C/C=C\C(=O)N[C@@H](CC(N)=O)C(=O)N[C@@H]1C(=O)N[C@H](c2ccc(O)cc2)C(=O)N[C@H](CCCN)C(=O)N[C@H]([C@@H](C)O)C(=O)N[C@@H](c2ccc(O)cc2)C(=O)N[C@H](c2ccc(O)cc2)C(=O)N[C@@H]([C@H](C)O)C(=O)N[C@@H](Cc2ccccc2)C(=O)N[C@H](CCCN)C(=O)N[C@@H](c2ccc(O)cc2)C(=O)N[C@H]([C@@H](C)O)C(=O)N[C@@H](c2ccc(O)cc2)C(=O)NCC(=O)N[C@@H](CC(C)C)C(=O)N[C@H](C)C(=O)N[C@@H](c2ccc(O)c(Cl)c2)C(=O)O[C@@H]1C(N)=O` [Ramoplanin A2 aglycone] ({Octa(2Z,4E)dienoyl(7-Me)}-N[X1][dHpg][dOrn][d(aThr)][Hpg][dHpg][aThr]F[dOrn][Hpg][d(aThr)][Hpg]GL[dA][Hpg(3-Cl)]; ester 2-C), for which the minimum inhibitory concentration (MIC) was 0.5 µg/mL (≈ 0.224 µM) in test [1] (ATCC29212), 1 µg/mL (≈ 0.448 µM) in test [2] (ATCC51299), 2 µg/mL (≈ 0.897 µM) in test [3] (ATCC25923) and 2 µg/mL (≈ 0.897 µM) in test [4] (ATCC43300).
For the compound `CC(C)C/C=C/C=C\C(=O)N[C@@H](CC(N)=O)C(=O)N[C@@H]1C(=O)N[C@H](c2ccc(O)cc2)C(=O)N[C@H](CCCN)C(=O)N[C@H]([C@@H](C)O)C(=O)N[C@@H](c2ccc(O)cc2)C(=O)N[C@H](c2ccc(O)cc2)C(=O)N[C@@H]([C@H](C)O)C(=O)N[C@@H](Cc2ccccc2)C(=O)N[C@H](CCCN)C(=O)N[C@@H](c2ccc(O)cc2)C(=O)N[C@H]([C@@H](C)O)C(=O)N[C@@H](c2ccc(O)cc2)C(=O)NCC(=O)N[C@@H](CC(C)C)C(=O)N[C@H](C)C(=O)N[C@@H](c2ccc(O)cc2)C(=O)O[C@@H]1C(N)=O` [Deschlororamoplanin A2 aglycone] ({Octa(2Z,4E)dienoyl(7-Me)}-N[X1][dHpg][dOrn][d(aThr)][Hpg][dHpg][aThr]F[dOrn][Hpg][d(aThr)][Hpg]GL[dA][Hpg]; ester 2-C), the minimal inhibitory concentration (MIC) in test [1] (ATCC29212) was found to be 1 µg/mL (≈ 0.456 µM); in test [2] (ATCC51299), 1 µg/mL (≈ 0.456 µM); in test [3] (ATCC25923), 2 µg/mL (≈ 0.911 µM); in test [4] (ATCC43300) it was 4 µg/mL (≈ 1.82 µM).
